Results from ChEMBL document CHEMBL5604063, “ASAP - DENV-2 NS2B-NS3 protease fluorescence dose response” (2024).
“And” between values parts separate entries of the source, which are not always exact repeats. Equal values may be shown once.

What was measured:
Genome polyprotein [1] = molecular target: T1, Genome polyprotein (dengue virus type 2, UniProt P29990); assay type: functional, Thailand/16681/1984
Genome polyprotein [2] = molecular target: T1, Genome polyprotein; assay type: functional, Thailand/16681/1984; remark: listed apart in the source

T1 sequence (P29990 1346-1475 limits assumed): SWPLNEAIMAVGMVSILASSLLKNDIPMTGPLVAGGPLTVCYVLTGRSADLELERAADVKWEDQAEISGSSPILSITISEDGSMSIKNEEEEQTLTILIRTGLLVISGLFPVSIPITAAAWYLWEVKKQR
T1 sequence (P29990 1476-2093 limits assumed): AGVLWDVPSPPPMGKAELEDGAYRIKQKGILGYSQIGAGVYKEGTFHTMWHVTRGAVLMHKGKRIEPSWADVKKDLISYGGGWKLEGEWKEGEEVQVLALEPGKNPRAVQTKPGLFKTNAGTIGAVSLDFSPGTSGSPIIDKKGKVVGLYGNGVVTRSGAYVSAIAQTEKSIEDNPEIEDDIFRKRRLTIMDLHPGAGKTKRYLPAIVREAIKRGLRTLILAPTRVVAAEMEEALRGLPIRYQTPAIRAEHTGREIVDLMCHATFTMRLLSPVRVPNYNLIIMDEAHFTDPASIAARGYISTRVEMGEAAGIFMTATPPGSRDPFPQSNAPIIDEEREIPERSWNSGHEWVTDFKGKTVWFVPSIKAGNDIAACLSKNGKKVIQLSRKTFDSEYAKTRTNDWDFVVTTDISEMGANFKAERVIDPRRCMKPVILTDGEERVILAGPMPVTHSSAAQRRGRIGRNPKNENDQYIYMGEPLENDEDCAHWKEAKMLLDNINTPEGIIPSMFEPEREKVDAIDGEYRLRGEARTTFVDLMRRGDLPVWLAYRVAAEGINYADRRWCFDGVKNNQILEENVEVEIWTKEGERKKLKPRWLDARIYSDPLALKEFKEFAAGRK

SMILES | IC50 (Genome polyprotein [1]) | IC50 (Genome polyprotein [2])
O=C(Nc1ccc2c(c1)CNC2)c1cc(Cl)cc2[nH]c(-c3ncnn3C3CC3)nc12 | > 99.5 µM | > 100 µM
CC(=O)N[C@]1(C)C(=O)Nc2cc(F)cc(C(=O)Nc3ccc4c(c3)CNC4)c21 | > 99.5 µM | > 100 µM
O=C(Nc1cc(Cl)cc([C@H](Nc2cccc(-c3nn[nH]n3)c2)C(=O)N[C@H]2CCOC2)c1)OCc1ccccc1 | 40.3 µM | 22.9 µM
CCCCCn1cc(C(=O)Nc2cccc(CN)c2)c2ccccc21 | > 99.5 µM | > 100 µM
COCc1cc(Cl)cc([C@H](Nc2ccc3c(c2)CNC3)C(=O)NCC(F)F)c1 | > 99.5 µM | > 100 µM
Cn1cc2c(C(=O)Nc3ccc4c(c3)CNC4)cccc2n1 | > 99.5 µM | > 100 µM
CCc1c(C(=O)Nc2cccc(CN)c2)c2cc(Cl)ccc2n1C | > 99.5 µM | > 100 µM
O=C(Nc1cc(Cl)cc(C(=O)Nc2ccc(OC3CNC3)cc2)c1)OCc1ccccc1 | 64.2 µM | > 100 µM
Cc1cc(C(=O)Nc2cccc(CN)c2)c2c(C)n[nH]c2n1 | > 99.5 µM | > 100 µM
C=CC[C@H](Nc1cccc(-c2nn[nH]n2)c1)c1cc(Cl)cc2[nH]ncc12 | 92 µM | 53.4 µM and 45 µM
C[C@H]1CN(Cc2ccccc2)C[C@@H](C(=O)Nc2cccc(CN)c2)O1 | > 99.5 µM | > 100 µM
NCc1cccc(NC(=O)[C@H]2CCc3nnc(C4CC4)n3C2)c1 | > 99.5 µM | > 100 µM
O=C(NCC(F)F)[C@H](Nc1ncc2c(n1)CNC2)c1cc(Cl)cc(C2CC2)c1 | > 99.5 µM | > 100 µM
Cn1nc2c(c1NC(=O)c1cc(Cl)cc(NC(=O)OCc3ccccc3)c1)CNCC2 | 60.7 µM | > 100 µM
C=CC[C@H](Nc1cc(Cl)cc(NC(=O)OCc2ccccc2)c1)c1ccc(-c2nn[nH]n2)cc1 | 7.02 µM | 5.69 µM and 5.81 µM
O=C1Cc2c(cccc2C(=O)Nc2ccc3[nH]nnc3c2)N1 | > 99.5 µM | > 100 µM
CCn1c(=O)c(N2CC[C@H](CO)C2)nc2cc(C(=O)NCc3ccccc3)ccc21 | > 99.5 µM | > 100 µM
CNC(=O)[C@H](Nc1cc(Cl)cc(C2CC2)c1)c1ccc(-c2nn[nH]n2)cc1 | > 99.5 µM | 99.6 µM and > 100 µM
O=C(NCCCF)[C@H](Nc1ccc2c(c1)CNC2)c1cc(Cl)cc(C2CC2)c1 | > 99.5 µM | > 100 µM
Fc1cc(CNc2ccc3c(n2)CNC3)c2cn[nH]c2c1 | > 99.5 µM | > 100 µM
NCc1cccc(NC(=O)C[C@H](NC(=O)OCc2ccccc2)c2ccc(OCc3ccccc3)c(Br)c2)c1 | < 2.49 µM and 1.85 µM and 1.92 µM and 1.84 µM and 2.53 µM and 2.67 µM and 2.65 µM | 8.8 µM and 6.74 µM and 4.06 µM and 4.11 µM and 9.99 µM and 4.61 µM and 3.66 µM
Cc1c(C(=O)Nc2cc(-c3cccnc3)ccn2)cc(C(C)C)n1C | > 99.5 µM | > 100 µM
O=C(O)c1nc(Cc2c[nH]c3ccc(Cl)cc23)c2ccccn12 | > 99.5 µM | > 100 µM
Cn1nc(CNc2cc(-c3cccnc3)ccn2)cc1C1CC1 | > 99.5 µM | > 100 µM
C=C1C[C@H](c2cc(Cl)cc(NC(=O)OCc3ccccc3)c2)[C@@H](c2cccc(-c3nn[nH]n3)c2)C1 | 6.29 µM | 5.18 µM

SMILES | IC50 (Genome polyprotein [1]) | IC50 (Genome polyprotein [2])
C(#C[C@H](Nc1ccc2c(c1)CNC2)c1cccc2[nH]ncc12)c1ccccc1 | > 99.5 µM | > 100 µM
NCc1cccc(NC(=O)c2cc(NC(=O)OCc3ccccc3)cc(C3CC3)c2)c1 | 76.1 µM | > 100 µM
CNC(=O)[C@H](Nc1cc(CNC(=O)OC(C)(C)C)cc(C(=O)O)c1)c1cc(Cl)cc(C2CC2)c1 | > 99.5 µM | > 100 µM
c1cncc(-c2cc(CN3CCC(c4cscn4)CC3)n[nH]2)c1 | > 99.5 µM | > 100 µM
Cc1c(C(=O)Nc2ccc3c(c2F)CCN(C)C3=O)cc(C2CC2)n1C | > 99.5 µM | > 100 µM
CC1(C)CN(C(=O)Nc2ccc3c(c2)CNC3)CC(F)(F)C1 | > 99.5 µM | > 100 µM
C=CC[C@H]1NCc2cc(NC(=O)c3cc(F)cc4c3CC(=O)N4)ccc21 | 31.9 µM | 31.9 µM and 23.6 µM
O=C(Nc1ccc2c(c1)CNC2)c1cncc2[nH]ncc12 | > 99.5 µM | > 100 µM
O=C(NCc1cccnc1)[C@H](Nc1ccc2c(c1)CNC2)c1cc(Cl)cc2[nH]ncc12 | – | > 100 µM
O=C(Nc1cc(Cl)cc(-c2cc3cc(C(=O)O)ncn3c2)c1)OCc1ccccc1 | – | 50.1 µM
N[C@H]1CCN(c2ccc(NS(=O)(=O)c3ccc(Oc4ccccc4Cl)cc3)cc2)C1 | – | > 100 µM
NCc1csc2cc(C(=O)Nc3ccc4c(c3)CNC4)ccc12 | – | 83.1 µM and > 100 µM
N#C[C@H](Nc1ccc2c(c1)CNC2)c1n[nH]c2cc(C(F)(F)F)ccc12 | – | > 100 µM
Cc1c(C(=O)Nc2cccc(-c3nnn[nH]3)c2)sc2ccccc12 | – | 75.2 µM
O=C(Nc1ccc2c(c1)CNC2)c1cc(Br)cc2[nH]c(Cc3ccccc3)nc12 | – | > 100 µM and 53.9 µM
N#Cc1cccc(-c2nc3c(C(=O)NCc4ccccc4)cc(Cl)cc3[nH]2)c1 | – | > 100 µM
N[C@H]1CCc2cc(NC(=O)c3cc(Cl)cc4[nH]ncc34)ccc21 | – | 59.2 µM
N#Cc1cccc(-c2nc3c(C(=O)Nc4ccncc4)cc(Cl)cc3[nH]2)c1 | – | > 100 µM
CO[C@H](C)Cn1cc2c(C(=O)Nc3ccc4c(c3)CNC4)cc(Cl)cc2n1 | – | > 100 µM
CC[C@H](CO)NC(=O)Cn1ccnc(N2CC[C@H](CO)C2)c1=O | – | > 100 µM
O=C(Nc1ccc2c(c1)CNC2)c1cc(Cl)cc2c1NCCC2 | – | > 100 µM
NCc1cc(Cl)cc(C(=O)Nc2cccc(-c3nn[nH]n3)c2)c1 | – | > 100 µM
CC(C)c1nc2c(C(=O)Nc3ccc4c(c3)CNC4)cc(Br)cc2[nH]1 | – | > 100 µM
NCc1cccc(NC(=O)c2cccc(CN)c2)c1 | – | > 100 µM
CC(C)CNC(=O)c1cc(Cl)cc2[nH]c(-c3cccc(C#N)c3)nc12 | – | > 100 µM

SMILES | IC50 (Genome polyprotein [1]) | IC50 (Genome polyprotein [2])
COc1ccccc1-c1nc2c(C(=O)Nc3ccc4c(c3)CNC4)cc(F)cc2[nH]1 | – | > 100 µM
N#Cc1cccc(-c2nc3c(C(=O)NCc4ccccn4)cc(Cl)cc3[nH]2)c1 | – | > 100 µM
N#Cc1cccc(-c2nc3c(C(=O)NCc4cccnc4)cc(Cl)cc3[nH]2)c1 | – | > 100 µM
N#Cc1cccc(-c2nc3c(C(=O)Nc4ccccc4)cc(Cl)cc3[nH]2)c1 | – | > 100 µM
N=C(N)NCCC[C@H](NC(=O)c1nccs1)C(=O)N[C@@H](CCCCN)C(=O)N[C@@H](C(N)=O)c1ccc(OCc2ccc(C(F)(F)F)cc2)cc1 | – | 1.46 µM and 1.87 µM and 1.17 µM and 2.77 µM and 3.21 µM and 2.73 µM and 3 µM and 2.69 µM and 2.58 µM and 2.57 µM (2×) and 2.84 µM (2×) and 3.15 µM and 3.2 µM and 2.52 µM (2×) and 2.33 µM and 2.17 µM and 2.34 µM and 2.39 µM and 2.31 µM and 2.49 µM and 2.93 µM and 2.95 µM and 2.64 µM and 3.09 µM and 2.26 µM and 2.59 µM and 2.92 µM and 2.68 µM and 2.2 µM and 2.3 µM and 2.12 µM and 1.71 µM and 1.91 µM and 1.72 µM and 2.55 µM and 2.1 µM
O=C(Nc1cc(Cl)cc(C(=O)Nc2ncc(C3CNC3)s2)c1)OCc1ccccc1 | – | > 100 µM
Cc1ccncc1-c1cc(CN)cc([C@@H]2C[C@H]2c2cc(Cl)cc(NC(=O)OCc3ccccc3)c2)c1 | – | > 100 µM
Nc1cc(Cl)cc(C(=O)Nc2ccc3c(c2)CNC3)c1N | – | > 100 µM
O=C(O)c1cc(Cc2c[nH]c3ccc(Cl)cc23)cc(C2CC2)n1 | – | > 100 µM
N#Cc1cccc(-c2nc3c(C(=O)Nc4cccnc4)cc(Cl)cc3[nH]2)c1 | – | > 100 µM
CN(C)CCNC(=O)[C@H](NC(=O)OCc1ccccc1)c1ccc(OCc2ccccc2)cc1 | > 99.5 µM | –
C[C@@H]1c2cccnc2CCN1Cc1cccc(CN(C)C)c1 | > 99.5 µM | –
O=S(=O)(c1cccnc1)N1CCN(Cc2c[nH]c3ccccc23)CC1 | > 99.5 µM | –
O=C(O)c1cc2c(cc1NS(=O)(=O)c1ccc(Oc3ccccc3Cl)cc1)CCC2 | 7.97 µM | –
COCc1cc(Cl)cc(S(=O)(=O)Nc2cccc(-c3nnn[nH]3)c2)c1 | > 99.5 µM | –
Brc1nc(Br)n(Cc2cscn2)n1 | > 99.5 µM | –
NCc1cccc(NC(=O)[C@@H](Cc2ccccc2)NC(=O)OCc2ccccc2)c1 | > 99.5 µM | –
NCc1cccc(NC(=O)[C@@H]2c3ccsc3CCN2C(=O)OCc2ccccc2)c1 | > 99.5 µM | –
O=C(O)c1cc(NS(=O)(=O)c2ccc(Oc3ccccc3Cl)cc2)ccc1Cl | > 99.5 µM | –
Cn1ccc(CS(=O)(=O)N[C@@H](C(=O)Nc2cccc(CN)c2)c2ccc(OCc3ccccc3)cc2)n1 | > 99.5 µM | –
Cc1c(C(=O)Nc2cc(C(=O)N3CCn4nccc43)ccn2)cc(C2CC2)n1C | – | > 100 µM
O=C(N[C@@H](C(=O)NCc1ccccn1)c1ccc(OCc2ccccc2)cc1)OCc1ccccc1 | > 99.5 µM | –
O=C(N[C@H](C(=O)NCc1cccc(CO)c1)c1ccc(OCc2ccccc2)cc1)OCc1ccccc1 | > 99.5 µM | –
NCc1cccc(NC(=O)[C@H](NC(=O)OCc2ccccc2)C2CCC(c3ccccc3)CC2)c1 (stereo partly drawn) | 6.26 µM and 5.78 µM | –
O=C(O)[C@@H]1CCCC[C@@H]1NS(=O)(=O)c1ccc(Oc2ccccc2Cl)cc1 | > 99.5 µM | –
